Like-named read-outs stand apart in the source and are kept apart here.
Assays:
CDK2/CycE = molecular target: T1, CDK2/CycE (Homo sapiens, UniProt P24941); assay: CDK2/CycE high ATP kinase assay (TR-FRET, Method 2b); assay type: biochemical; conditions: 2 mM ATP
T1 construct: GST; purchased ProQinase GmbH (Freiburg, Germany); host or cells: insect cells (Sf9)
Procedure: 2b. CDK2/CycE High ATP Kinase Assay:
CDK2/CycE-inhibitory activity of compounds of the present invention at 2 mM adenosine-tri-phosphate (ATP) was quantified employing the CDK2/CycE TR-FRET (TR-FRET=Time Resolved Fluorescence Resonance Energy Transfer) assay as described in the following paragraphs.
Recombinant fusion proteins of GST and human CDK2 and of GST and human CycE, expressed in insect cells (Sf9) and purified by Glutathion-Sepharose affinity chromatography, were purchase from ProQinase GmbH (Freiburg, Germany). As substrate for the kinase reaction biotinylated peptide biotin-Ttds-YISPLKSPYKISEG (C-terminus in amid form) was used which can be purchased e.g. from the company JERINI peptide technologies (Berlin, Germany).
For the assay 50 nl of a 100 fold concentrated solution of the test compound in DMSO was pipetted into a black low volume 384 well microtiter plate (Greiner Bio-One, Frickenhausen, Germany), 2 μl of a solution of CDK2/CycE in aqueous assay buffer [50 mM Tris/HCl pH 8.0, 10 mM MgCl2, 1.0 mM dithiothreitol, 0.1 mM sodium ortho-vanadate, 0.01% (v/v) Nonidet-P40 (Sigma)] were added and the mixture was incubated for 15 min at 22° C. to allow pre-binding of the test compounds to the enzyme before the start of the kinase reaction. […] The concentration of CDK2/CycE was adjusted depending of the activity of the enzyme lot and was chosen appropriate to have the assay in the linear range, typical concentrations were in the range of 15 ng/ml. The reaction was stopped by the addition of 5 μl of a solution of TR-FRET detection reagents (0.2 μM streptavidine-XL665 [Cisbio Bioassays, Codolet, France] and 1 nM anti-RB(pSer807/pSer811)-antibody from BD Pharmingen [#558389] and 1.2 nM LANCE EU-W1024 labeled anti-mouse IgG antibody [Perkin-Elmer, product no. AD0077, as an alternative a Terbium-cryptate-labeled anti-mouse IgG antibody from Cisbio Bioassays can be used]) in an aqueous EDTA-solution (100 mM EDTA, 0.2% (w/v) bovine serum albumin in 100 mM HEPES pH 7.5).
The resulting mixture was incubated 1 h at 22° C. to allow the formation of complex between the phosphorylated biotinylated peptide and the detection reagents. Subsequently the amount of phosphorylated substrate was evaluated by measurement of the resonance energy transfer from the Eu-chelate to the streptavidine-XL. Therefore, the fluorescence emissions at 620 nm and 665 nm after excitation at 350 nm were measured in a TR-FRET reader, e.g. a Rubystar (BMG Labtechnologies, Offenburg, Germany) or a Viewlux (Perkin-Elmer). The ratio of the emissions at 665 nm and at […] was taken as the measure for the amount of phosphorylated substrate. The data were normalised (enzyme reaction without inhibitor=0% inhibition, all other assay components but no enzyme=100% inhibition).

Caco-2 cells = assay: Proliferation assay Caco-2; assay type: cell-based, human; conditions: 4 days, crystal violet, read-out: Inhibition of Caco-2 cell proliferation IC50
Procedure: Cultivated tumour cells (HeLa, human cervical tumour cells, ATCC CCL-2; NCI-H460, human non-small cell lung carcinoma cells, ATCC HTB-177; A2780, human ovarian carcinoma cells, ECACC #93112519; DU 145, hormone-independent human prostate carcinoma cells, ATCC HTB-81; HeLa-MaTu-ADR, multidrug-resistant human cervical carcinoma cells, EPO-GmbH Berlin; Caco-2, human colorectal carcinoma cells, ATCC HTB-37; B16F10, mouse melanoma cells, ATCC CRL-6475) were plated at a density of 5,000 cells/well (DU145, HeLa-MaTu-ADR), 3,000 cells/well (NCI-H460, HeLa), 2,500 cells/well (A2780), 1,500 cells/well (Caco-2), or 1,000 cells/well (B16F10) in a 96-well multititer plate in 200 μL of their respective growth medium supplemented 10% fetal calf serum. After 24 hours, the cells of one plate (zero-point plate) were stained with crystal violet (see below), while the medium of the other plates was replaced by fresh culture medium (200 μl), to which the test substances were added in various concentrations (0 μM, as well as in the range of 0.001-10 μM). The cells were incubated for 4 days in the presence of test substances. Cell proliferation was determined by staining the cells with crystal violet: the cells were fixed by adding 20 μl/measuring point of an 11% glutaric aldehyde solution for 15 minutes at room temperature. After three washing cycles of the fixed cells with water, the plates were dried at room temperature. The cells were stained by adding 100 μl/measuring point of a 0.1% crystal violet solution (pH 3.0). After three washing cycles of the stained cells with water, the plates were dried at room temperature. The dye was dissolved by adding 100 μl/measuring point of a 10% acetic acid solution. The extinction was determined by photometry at a wavelength of 595 nm. The change of cell number, in percent, was calculated by normalization of the measured values to the extinction values of the zero-point plate (=0%) and the extinction of the untreated (0 μm) cells (=100%). The IC50 values (inhibitory concentration at 50% of maximal effect) were determined by means of a 4 parameter fit. Non-adherent MOLM-13 human acute myeloid leukemia cells (DSMZ ACC 554) were seeded at a density of 5,000 cells/well in a 96-well multititer plate in 100 μL of growth medium supplemented 10% fetal calf serum. After 24 hours, cell viability of one plate (zero-point plate) was determined with the Cell Titre-Glo Luminescent Cell Viability Assay (Promega), while 50 μL of test compound containing medium was added to the wells of the other plates (final concentrations in the range of 0.001-1 μM and DMSO controls). Cell viability was assessed after 72-hour exposure with the Cell Titre-Glo Luminescent Cell Viability Assay (Promega). IC50 values (inhibitory concentration at 50% of maximal effect) were determined by means of a 4 parameter fit on measurement data which were normalized to vehicle (DMSO) treated cells (=100%) and measurement readings taken immediately before compound exposure (=0%).

SMILES	IC50 (CDK2/CycE) [nM]	IC50 (Caco-2 cells; Homo sapiens, Caco-2, 96 h) [nM]	IC50 (Caco-2 cells; trifluoroacetate) [nM]
CS(=O)(=O)Cc1cc2nc(c1)OCCCOc1cc(F)ccc1-c1cc(ncc1F)N2 [Example 8, 15,19-difluoro-8-[(methylsulfonyl)methyl]-3,4-dihydro-2H,11H-10,6-(azeno)-12,16-(metheno)-1,5,11,13-benzodioxadiazacyclooctadecine]	33.6	11	–
C[S+]([O-])Cc1cc2nc(c1)OCCCCOc1cc(F)ccc1-c1cc(ncc1F)N2 (racemic) [Example 13, (rac)-16,20-difluoro-9-[(methylsulfinyl)methyl]-2,3,4,5-tetrahydro-12H-11,7-(azeno)-13,17-(metheno)-1,6,12,14-benzodioxadiazacyclononadecine]	113	22	–
C[S+]([O-])Cc1cc2nc(c1)OCCCOc1cc(F)ccc1-c1cc(ncc1F)N2 (racemic) [Example 4, (rac)-15,19-Difluoro-8-[(methylsulfinyl)methyl]-3,4-dihydro-2H,11H-10,6-(azeno)-12,16-(metheno)-1,5,11,13-benzodioxadiazacyclooctadecine]	32.1	10	–
CS(=N)(=O)Cc1cc2cc(c1)OCCCCOc1cc(F)ccc1-c1nc(ncc1F)N2 (racemic) [Example 1, (rac)-16,20-Difluoro-9-[(S-methylsulfonimidoyl)methyl]-2,3,4,5-tetrahydro-12H-13,17-(azeno)-11,7-(metheno)-1,6,12,14-benzodioxadiazacyclononadecine]	216	9	–
CS(=N)(=O)Cc1cc2nc(c1)OCCCCOc1cc(F)ccc1-c1cc(ncc1F)N2 (racemic) [Example 14, (rac)-16,20-difluoro-9-[(S-methylsulfonimidoyl)methyl]-2,3,4,5-tetrahydro-12H-11,7-(azeno)-13,17-(metheno)-1,6,12,14-benzodioxadiazacyclononadecine]	162	13	–
C[S+]([O-])Cc1cc2nc(c1)OCCOc1cc(F)ccc1-c1cc(ncc1F)N2 (racemic) [Example 10, (rac)-14,18-difluoro-7-[(methylsulfinyl)methyl]-2,3-dihydro-10H-9,5-(azeno)-11,15-(metheno)-1,4,10,12-benzodioxadiazacycloheptadecine]	3500	584	–

Further lines, results first:

IC50 (CDK2/CycE) [nM]	IC50 (Caco-2 cells; Homo sapiens, Caco-2, 96 h) [nM]	IC50 (Caco-2 cells; trifluoroacetate) [nM]	SMILES
44.6	24	–	CCOC(=O)N=S(C)(=O)Cc1cc2nc(c1)OCCCOc1cc(F)ccc1-c1cc(ncc1F)N2 (racemic) [Example 20, (rac)-ethyl [{[15,19-difluoro-3,4-dihydro-2H,11H-10,6-(azeno)-12,16-(metheno)-1,5,11,13-benzodioxadiazacyclooctadecin-8-yl]methyl}(methyl)oxido-λ^6-sulfanylidene]carbamate]
195	27	–	CS(=O)(=O)N=S(C)(=O)Cc1cc2nc(c1)OCCCOc1cc(F)ccc1-c1cc(ncc1F)N2 (racemic) [Example 22, (rac)-N-[{[15,19-difluoro-3,4-dihydro-2H,11H-10,6-(azeno)-12,16-(metheno)-1,5,11,13-benzodioxadiazacyclooctadecin-8-yl]methyl}(methyl)oxido-λ^6-sulfanylidene]methanesulfonamide]
63.2	14	–	CC(=O)N=S(C)(=O)Cc1cc2nc(c1)OCCCOc1cc(F)ccc1-c1cc(ncc1F)N2 (racemic) [Example 18, (rac)-N-[{[15,19-difluoro-3,4-dihydro-2H,11H-10,6-(azeno)-12,16-(metheno)-1,5,11,13-benzodioxadiazacyclooctadecin-8-yl]methyl}(methyl)oxido-λ^6-sulfanylidene]acetamide]
74.8	16	–	CS(=O)(Cc1cc2nc(c1)OCCCOc1cc(F)ccc1-c1cc(ncc1F)N2)=NC(=O)OCCCl (racemic) [Example 21, (rac)-2-chloroethyl [{[15,19-difluoro-3,4-dihydro-2H,11H-10,6-(azeno)-12,16-(metheno)-1,5,11,13-benzodioxadiazacyclooctadecin-8-yl]methyl}(methyl)oxido-λ^6-sulfanylidene]carbamate]
166	–	267	CS(=O)(Cc1cc2nc(c1)OCCCOc1cc(F)ccc1-c1cc(ncc1F)N2)=NS(=O)(=O)CCN.O=C(O)C(F)(F)F (racemic) [Example 24, (rac)-2-{[{[15,19-difluoro-3,4-dihydro-2H,11H-10,6-(azeno)-12,16-(metheno)-1,5,11,13-benzodioxadiazacyclooctadecin-8-yl]methyl}(methyl)oxido-λ^6-sulfanylidene]sulfamoyl}ethanaminium trifluoroacetate]
272	422	–	CS(=O)(Cc1cc2nc(c1)OCCCOc1cc(F)ccc1-c1cc(ncc1F)N2)=NS(=O)(=O)CCN (racemic) [Example 23, (rac)-2-amino-N-[{[15,19-difluoro-3,4-dihydro-2H,11H-10,6-(azeno)-12,16-(metheno)-1,5,11,13-benzodioxadiazacyclooctadecin-8-yl]methyl}(methyl)oxido-λ^6-sulfanylidene]ethanesulfonamide]
159	33	–	CN=S(C)(=O)Cc1cc2nc(c1)OCCCOc1cc(F)ccc1-c1cc(ncc1F)N2 (racemic) [Example 19, (rac)-8-[(N,S-dimethylsulfonimidoyl)methyl]-15,19-difluoro-3,4-dihydro-2H,11H-10,6-(azeno)-12,16-(metheno)-1,5,11,13-benzodioxadiazacyclooctadecine]
43.7	329	–	NCCS(=O)(=O)Cc1cc2nc(c1)OCCCOc1cc(F)ccc1-c1cc(ncc1F)N2 [Example 26, 2-({[15,19-difluoro-3,4-dihydro-2H,11H-10,6-(azeno)-12,16-(metheno)-1,5,11,13-benzodioxadiazacyclooctadecin-8-yl]methyl}sulfonyl)ethanamine]
